According to the supplement of paper PMC11208160:

Experiment: recombinant barcode read abundance after kanamycin selection (control-corrected) (log10(CPM+1)); higher = more efficient recombination; sequences stand for … in AGTGCAGAGAAAATCGGCCAGTTTTCTCTGCCTGCAGTCCGCATGCCGT…AGATTTATGCAGCGGACTGCCTTTCTCCCAAAGTGATAAACCGGACAGTATCATGGACCGGTTTTCCCGGTAATCCGTATTTGCAAGGTTGGTTTCACT; site = the 11-nt target
In short: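 This pooled E. coli screen matched targets with IS621 bridge RNA target-binding loops. Plating was done in duplicate on chloramphenicol/ampicillin LB agar as a control and on chloramphenicol/ampicillin/kanamycin plus 0.1 mM IPTG. Recombination efficiency reflects barcode counts at recombinant junctions as counts per million, averaged and control-corrected. The figures are log10(CPM+1).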
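Note: IS621 recombinase and bridge RNA in Escherichia coli cells.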

Sequence | recombinant barcode read abundance (log10)
GGCAGACCTTGGGTTCTAACCTGTTGCCT (site GGCAGTCCTCG) | 0.373
GGCATATCTTGGGTTCTAACCTGTTGCCT (site AGTATATCTAG) | 0.0602
GGCATATCTTGGGTTCTAACCTGTTGCCT (site GGCATATCTAG) | 0.048
GGCATCCCTTGGGTTCTAACCTGTTGCCT (site GGCATCCCTAG) | 0.337
GGCATCCCTTGGGTTCTAACCTGTTGCCT (site GGCCTCCCTAG) | 0.258
GGCATCCCTTGGGTTCTAACCTGTTGCCT (site GGCGTCCCTAG) | 0.184
GGCATCCCTTGGGTTCTAACCTGTTGCCT (site GGCTTCCCTAG) | 0.145
GGCCGGACTTGGGTTCTAACCTGTTGCCT (site GGCCGGACTAG) | 0.937
GGCCGGACTTGGGTTCTAACCTGTTGCCT (site GGCCGGCCTAG) | 0.253
GGCCGGACTTGGGTTCTAACCTGTTGCCT (site GGCCGGGCTAG) | 0.112
GGCCGGACTTGGGTTCTAACCTGTTGCCT (site GGCCGGTCTAG) | 0.021
GGCCGGGCTTGGGTTCTAACCTGTTGCCT (site GGCCGGACTAG) | 0.143
GGCCGGGCTTGGGTTCTAACCTGTTGCCT (site GGCCGGCCTAG) | 0.0912
GGCCGGGCTTGGGTTCTAACCTGTTGCCT (site GGCCGGGCTAG) | 0.219
GGCCGGGCTTGGGTTCTAACCTGTTGCCT (site GGCCGGTCTAG) | 0.0839
GGCCGTCCTTGGGTTCTAACCTGTTGCAG (site ACCCGTCCTCT) | 0.184
GGCCGTCCTTGGGTTCTAACCTGTTGCAG (site GGCCGTCCTCT) | 0.118
GGCGCCTCTTGGGTTCTAACCTGTTGCGC (site AATCTAACTAG) | 0.139
GGCGCCTCTTGGGTTCTAACCTGTTGCGC (site GGCGCCTCTGC) | 0.777
GGCGCGTCTTGGGTTCTAACCTGTTGCCT (site GGCGCATCTAG) | 0.607

Sequence | recombinant barcode read abundance (log10)
GGCGCGTCTTGGGTTCTAACCTGTTGCCT (site GGCGCGTCTAG) | 0.557
GGCGTCACTTGGGTTCTAACCTGTTGCCT (site GGCGACCCTAG) | 0.111
GGCGTCACTTGGGTTCTAACCTGTTGCCT (site GGCGTCACTAG) | 1.24
GGCTAACCTTGGGTTCTAACCTGTTGCCT (site CATCGGACTTT) | 0.0416
GGCTAACCTTGGGTTCTAACCTGTTGCCT (site GGCTAACCTAG) | 1.33
GGCTACCCTTGGGTTCTAACCTGTTGCAA (site CTGGTATCTAA) | 0.148
GGCTACCCTTGGGTTCTAACCTGTTGCAA (site GGCTACCCTTT) | 0.774
GGCTAGACTTGGGTTCTAACCTGTTGCGG (site GGCTAGACTCC) | 1.43
GGCTAGACTTGGGTTCTAACCTGTTGCGG (site GGCTCTACTCC) | 0.0457
GGCTTCTCTTGGGTTCTAACCTGTTGCCT (site GGCTTCTCTAG) | 1.22
GGCTTCTCTTGGGTTCTAACCTGTTGCCT (site TGCCTCTCTAG) | 0.0687
GGGAACCCTTGGGTTCTAACCTGTTGCTA (site GGGAACCCTAA) | 0.147
GGGAACCCTTGGGTTCTAACCTGTTGCTA (site GGGAACCCTCA) | 0.132
GGGAACCCTTGGGTTCTAACCTGTTGCTA (site GGGAACCCTGA) | 0.0297
GGGAACCCTTGGGTTCTAACCTGTTGCTA (site GGGAACCCTTA) | 1.29
GGGACCTCTTGGGTTCTAACCTGTTGCGG (site GGGACCTCTAC) | 1.25
GGGACCTCTTGGGTTCTAACCTGTTGCGG (site GGGACCTCTCC) | 1.94
GGGATGTCTTGGGTTCTAACCTGTTGCCT (site GAGATGTCTAG) | 0.444
GGGATGTCTTGGGTTCTAACCTGTTGCCT (site GCGATGTCTAG) | 0.128
GGGATGTCTTGGGTTCTAACCTGTTGCCT (site GGGATGTCTAG) | 2.04

Sequence | recombinant barcode read abundance (log10)
GGGATGTCTTGGGTTCTAACCTGTTGCCT (site GTGATGTCTAG) | 0.211
GGGCAGCCTTGGGTTCTAACCTGTTGCCT (site GGGCAACCTAC) | 0.0939
GGGCAGCCTTGGGTTCTAACCTGTTGCCT (site GGGCAGCCTAG) | 0.458
GGGCATCCTTGGGTTCTAACCTGTTGCTT (site GGGCATCCTAA) | 0.652
GGGCATCCTTGGGTTCTAACCTGTTGCTT (site GTGCACCCTAA) | 0.637
GGGCCGGCTTGGGTTCTAACCTGTTGCCG (site AATGATTCTAC) | 0.292
GGGCCGGCTTGGGTTCTAACCTGTTGCCG (site GGGCCGGCTCG) | 1.14
GGGCCTGCTTGGGTTCTAACCTGTTGCCA (site CTCGACCCTAT) | 0
GGGCCTGCTTGGGTTCTAACCTGTTGCCA (site GGGCCTGCTTG) | 1.18
GGGCTGTCTTGGGTTCTAACCTGTTGCTT (site GGGCTGTCTAA) | 0.705
GGGCTGTCTTGGGTTCTAACCTGTTGCTT (site GGGGTGTCTCA) | 0.37
GGGGAGCCTTGGGTTCTAACCTGTTGCTG (site GGGGAGCCTCA) | 2.9
GGGGAGCCTTGGGTTCTAACCTGTTGCTG (site GGGGAGTCTAA) | 0.358
GGGGATCCTTGGGTTCTAACCTGTTGCCT (site GAGGATCCTAG) | 0.679
GGGGATCCTTGGGTTCTAACCTGTTGCCT (site GGGGATCCTAG) | 2.45
GGGGCACCTTGGGTTCTAACCTGTTGCAT (site GGGGCACCTAA) | 1.56
GGGGCACCTTGGGTTCTAACCTGTTGCAT (site GGGGCACCTAC) | 0.357
GGGGCACCTTGGGTTCTAACCTGTTGCAT (site GGGGCACCTAG) | 0.598
GGGGCACCTTGGGTTCTAACCTGTTGCAT (site GGGGCACCTAT) | 2.89
